Measured values reported in patent US7785567B2, “Growth hormone-releasing peptides in the treatment or prevention of atherosclerosis and hypercholesterolemia” (Valorisation-Recherche, Société en Commandite, priority 2002, dated 2010).
Where a SMILES comes first, the peptide text is derived from it. Primed or numbered codes have the meaning given here. Where no end group is shown, it is not given here. [ ]: non-standard residue; d: D form. dTrp(2-Me) = Cc1[nH]c2ccccc2c1C[C@@H](N)C(=O)O; Haic′ = not defined here

Assays:
ApoE-null mice [1] = assay: Plasma lipid analysis (enzymatic kits) after 12 weeks treatment; format: in vivo, mouse; details: HFHC diet; for Increase in HDL cholesterol compared to controls: HEX 100 μg/kg or EP80317 300 μg/kg per day for 12 weeks, tended to be increased
Protocol: A: Effects of 12 weeks treatment (from 6 weeks old) with 0.9% NaCl (open bar), HEX, 100 μg/kg per day (solid bar) or EP80317 300 μg/kg per day (cross-hatched bar) on total plasma cholesterol in mice fed a HFHC or a normal diet.
The animals were housed in cages (less than 5 per cage) and fed a normal chow diet and water ad libitum. At 6 weeks of age, male C57BL/6, CD36 and ApoE-null mice were assigned to 1 of 3 groups (n=12 mice per group): Group 1 received daily injections of 0.9% NaCl (1 μL/g); Group 2, HEX (100 μg/kg, 1 μL/g), and Group 3, EP80317 (300 μg/kg, 1 μL/g). All three groups of mice were fed a HFHC diet (purchased from Research Diet Inc. (D.12108)) from 6 weeks of age. Daily s.c. treatment with HEX, EP80317 or vehicle was begun at 6 weeks old and continued for 12 weeks. Four days before sacrifice, 6 mice from Groups 1 to 3 were injected i.p. with oxLDL (minimally oxidized, 3-6 mmol/mg protein, as determined by Thiobarbituric Acid Reactive Substances (TBARS) assay). At 18 weeks old, mice were fasted overnight, anaesthetised with ketamine-xylazine (90:10 mg/kg) two hours after the s.c. administration of the morning dose of the drug under study. Blood (1 mL) was taken from the heart and put into EDTA pre-coated microcontainers (BD, Franklin Lakes, N.J., USA). Mice were killed, the hearts were perfused with 20 mL 0.9% NaCl. The peritoneal cavity was washed with 3 mL of heparinised saline (10 units/mL) in mice injected i.p. with oxLDL. A hemacytometer and stained cytospin preparation (Diff Quick stain, Dade Diagnostics of P.R. Inc., Aguada, PR) were used to determine the total and differential leukocyte numbers, respectively, for the peritoneal cavity lavage fluid. The entire aorta from the heart, extending 5-10 mm after bifurcation of the iliac arteries and including the subclavian right and left common carotid arteries, was removed, dissected, and evaluated for lesion development by en face oil red-O staining and morphometry of scanned images using the software Scion Image (Scion Corp., Fredrick, Md.). The animal study protocol was reviewed and approved by the institutional Animal Ethics Committee of the Université de Montréal and conducted in accordance with the Canadian Council on Animal Care guidelines for use of experimental animals.
Total plasma cholesterol, triacylglycerol and HDL cholesterol were determined using enzymatic kits (Sigma Chemicals). Appropriate standards and controls were included in each assay.

CD36 = assay: Western blot of oxLDL-elicited peritoneal macrophages from treated ApoE-null mice; format: in vivo, mouse; details: HFHC diet, HEX 100 μg/kg or EP80317 300 μg/kg per day, 12 weeks, normalised to β-actin, vehicle set at 100%
Description: GHRPs modulate CD36 and ABCA1 protein levels in peritoneal macrophages from ApoE-null mice fed a HFHC diet for 12 weeks. […] Relative protein levels for A, CD36 and B, ABCA1 are normalised to β-actin and expressed as % of change compared to vehicle (0.9% NaCl)-treated controls set at 100%. Data represent the mean of two independent experiments.

[2] = system: human monocytic THP-1 cells; assay: Lipid accumulation in PMA-differentiated THP-1 macrophages (Oil Red O extraction, 510 nm); format: cell-based; details: 10 μM for 24 hrs
Protocol: A: GHRPs reduce lipid accumulation in differentiated human macrophages. To induce lipid accumulation, human monocytic THP-1 cells were differentiated to macrophages with 5 ng/mL PMA for 48 hrs and then treated as indicated for 24 hrs with 10 μM HEX or EP80317 in the presence of phorbol myristate acetate (PMA). Non-differentiated cells (no PMA) were also analysed. Lipid accumulation was quantified by photometry at 510 nm following extraction of Oil Red O from stained cells. Lipid staining was reduced by 35% and 28% in macrophages treated with HEX and EP80317, respectively, compared to untreated cells.

ApoE-null mice [3] = assay: Fatty streak lesion area in aortas, en face oil red-O staining, 12 weeks treatment (Example 1); format: in vivo, mouse; details: HFHC diet, HEX 100 μg/kg per day or EP80317 300 μg/kg per day s.c. for 12 weeks from 6 weeks old, vs 0.9% NaCl
Protocol: GHRPs prevent fatty streak formation in ApoE deficient mice fed a HFHC diet for 12 weeks (from 6 weeks old). Effects of HEX (100 μg/kg per day) and of EP80317 (300 μg/kg per day), administered subcutaneously for 12 weeks (from 6 weeks old).
To determine whether GHRPs reduce atherosclerosis development, we have used the ApoE deficient mice strain and their C57BL/6 control littermates to assess the effects of prolonged (12 weeks) GHRPs treatment on fatty streak formation in mice fed a an enriched lipid diet. The surface area of oil red-O staining aortas of mice has been used as an index of plaque development and changes in the plasma levels of lipids as an index of hypolipemic effect. […]
(§1) The animals were housed in cages (less than 5 per cage) and fed a normal chow diet and water ad libitum. […] Four days before sacrifice, 6 mice from Groups 1 to 3 were injected i.p. with oxLDL (minimally oxidized, 3-6 mmol/mg protein, as determined by Thiobarbituric Acid Reactive Substances (TBARS) assay). […] The entire aorta from the heart, extending 5-10 mm after bifurcation of the iliac arteries and including the subclavian right and left common carotid arteries, was removed, dissected, and evaluated for lesion development by en face oil red-O staining and morphometry of scanned images using the software Scion Image (Scion Corp., Fredrick, Md.). […]

ApoE-null mice [4] = assay: Fatty streak lesion area in aortas, treatment begun after start of HFHC diet (Example 2); format: in vivo, mouse; details: HFHC diet from 6 weeks
Protocol: The effects of EP80317 (300 μg/kg per day) administered subcutaneously for 8 weeks (from 10 to 18 weeks of age), 6 weeks (from 12 to 18 weeks of age) and 4 weeks (from 14 to 18 weeks of age) were documented, as well as the effect of hexarelin (100 μg/kg per day) given for 4 weeks (from 14 to 18 weeks of age).
To determine whether GHRPs are able to delay the development or to modulate the regression of fatty streaks, we have used the ApoE-deficient mice to assess the effect of the duration of the treatment with GHRPs on the progression of fatty streaks after the initiation of atherosclerotic lesions induced by a HFHC diet starting at 6 weeks of age.
Male ApoE-null mice (n=35) were housed in cages (less than 5 per cage). After weaning until 4 weeks of age, the mice were fed a normal chow diet and water ad libitum. Starting at 6 weeks of age, the mice were fed a HFHC diet (purchased from Research Diet Inc. (D.12108)). The animals were segregated in 3 groups. • Group 1 (n=10) was subdivided into 2 subgroups, receiving, from 10 to 18 weeks of age (i.e. for 8 weeks), daily injections of EP80317 (300 μg/kg) (n=5) or 0.9% NaCl (n=5). • Group 2 (n=10) was subdivided into 2 subgroups receiving, from 12 to 18 weeks of age (i.e. for 6 weeks), daily injections of EP80317 (300 μg/kg/per day) (n=5) or 0.9% NaCl (n=5). • Group 3 (n=15) was subdivided into 3 subgroups, receiving, from 14 to 18 weeks of age (i.e. for 4 weeks), EP80317 (300 μg/kg/per day) (n=5), or hexarelin (100 μg/kg per day) (n=5) or 0.9% NaCl (n=5).
Mice were euthanised at 18 weeks of age. The entire aortas from the heart extending 5-10 mm after bifurcation of the iliac arteries and including the subclavian right and left common carotids were removed, dissected and evaluated for lesion development by en face oil red-O staining and morphometry of scanned images using the software Scion image (Scion Corp., Frederick, Md.).

ApoE-null mice [5] = assay: oxLDL-induced accumulation of macrophages in the peritoneal cavity; format: in vivo, mouse; details: normal chow diet, EP80317 300 μg/kg per day, 12 weeks
Protocol: B: Effects of 12 weeks treatment (from 6 weeks old) with 0.9% NaCl (open bar), HEX, 100 μg/kg per day (solid bar) or EP80317, 300 μg/kg per day (cross-hatched bar) on oxLDL-induced accumulation of macrophages in the peritoneal cavity in ApoE-null mice fed either a HFHC or a normal diet. Peritoneal macrophage accumulation was reduced by 39% in mice fed a normal diet.
as §1, with “libitum. At 6 weeks of age, male C57BL/6, CD36 and ApoE-null mice were assigned to 1 of 3 groups (n=12 mice per group): Group 1 received daily injections of 0.9% NaCl (1 μL/g); Group 2, HEX (100 μg/kg, 1 μL/g), and Group 3, EP80317 (300 μg/kg, 1 μL/g). All three groups of mice were fed a HFHC diet (purchased from Research Diet Inc. (D.12108)) from 6 weeks of age.” for “libitum.”

wild type C57BL/6 mice = assay: as above; format: in vivo, mouse; details: HFHC diet, EP80317 300 μg/kg per day, 12 weeks, oxLDL 250 μg i.p.
Protocol: (§2) A: Effects of 12 weeks treatment (from 6 weeks old) with 0.9% NaCl (open bar), HEX, 100 μg/kg per day (solid bar) or EP80317, 300 μg/kg per day (cross-hatched bar) on oxLDL (250 μg i.p., <6 nmol MDA/mg lipoprotein)-induced accumulation of macrophages in the peritoneal cavity in wild type C57BL/6 mice and CD36-null mice fed a HFHC diet. Peritoneal macrophage accumulation in wild type mice tended to be reduced by 37%.
as §1, with “libitum. At 6 weeks of age, male C57BL/6, CD36 and ApoE-null mice were assigned to 1 of 3 groups (n=12 mice per group): Group 1 received daily injections of 0.9% NaCl (1 μL/g); Group 2, HEX (100 μg/kg, 1 μL/g), and Group 3, EP80317 (300 μg/kg, 1 μL/g).” for “libitum.”

CD36-null mice = assay: as above; format: in vivo, mouse; details: HFHC diet, EP80317 300 μg/kg per day, 12 weeks
Protocol: as §2
as §1, with “libitum. At 6 weeks of age, male C57BL/6, CD36 and ApoE-null mice were assigned to 1 of 3 groups (n=12 mice per group): Group 1 received daily injections of 0.9% NaCl (1 μL/g); Group 2, HEX (100 μg/kg, 1 μL/g), and Group 3, EP80317 (300 μg/kg, 1 μL/g).” for “libitum.”

[6] = cited from earlier work
[7] = system: peritoneal macrophages isolated from ApoE-null mice; assay: Lipid accumulation in peritoneal macrophages isolated from treated ApoE-null mice (Oil Red O extraction); format: in vivo, mouse; details: HFHC diet from 13 to 18 weeks old, EP80317 300 μg/kg s.c. from 13 to 18 weeks old, vs not treated
Protocol: B: GHRPs reduced lipid accumulation in peritoneal macrophages isolated from ApoE-null mice fed a HFHC diet from 13 to 18 weeks old. EP80317 (300 μg/kg) s.c. has been administered from 13 to 18 weeks old. Lipid staining (assessed by Oil Red O extraction) was reduced by 57% (compared to peritoneal macrophages isolated from ApoE-null mice fed a HFHC diet from 13 weeks old, but not treated with EP80317).

[8] = treatment for 4 weeks (14 to 18 weeks of age), EP80317 300 μg/kg or hexarelin 100 μg/kg per day, not significant
[9] = EP80317 300 μg/kg daily for 12 weeks from 6 weeks old

| Molecule | Increase in HDL cholesterol compared to controls (ApoE-null mice [1]) | CD36 protein expression in peritoneal macrophages, % of controls (CD36) | Reduction of lipid staining compared to untreated cells [2] | Reduction of lesion area (% of total aorta area) compared to controls (ApoE-null mice [3]) | Reduction of lesion area (% total aorta area) compared to controls (ApoE-null mice [4]; [8]) | Reduction of oxLDL-induced peritoneal macrophage accumulation (ApoE-null mice [5]) | Decrease in non-HDL plasma cholesterol compared to controls (ApoE-null mice [1]; [9]) | Decrease in total plasma cholesterol compared to controls (ApoE-null mice [1]; [9]) | Reduction of oxLDL-induced peritoneal macrophage accumulation (wild type C57BL/6 mice) | oxLDL-induced peritoneal macrophage accumulation (CD36-null mice) | GH-secreting activity in vivo [6] | Reduction of lesion area (% total aorta area) compared to controls (ApoE-null mice [4]; treatment for 6 weeks (12 to 18 weeks of age), EP80317 300 μg/kg per day s.c.) | Reduction of lesion area (% total aorta area) compared to controls (ApoE-null mice [4]; treatment for 8 weeks (10 to 18 weeks of age), EP80317 300 μg/kg per day s.c.) | Reduction of lipid staining in peritoneal macrophages (Oil Red O extraction) [7] |
| --- | --- | --- | --- | --- | --- | --- | --- | --- | --- | --- | --- | --- | --- | --- |
| Cc1[nH]c2ccccc2c1C[C@@H](NC(=O)[C@@H](N)Cc1cnc[nH]1)C(=O)N[C@@H](C)C(=O)N[C@@H](Cc1c[nH]c2ccccc12)C(=O)N[C@H](Cc1ccccc1)C(=O)N[C@@H](CCCCN)C(N)=O [HEX, His-(D) -(Me)Trp-Ala-Trp-(D)-Phe-Lys-NH2, reference compound] (H-H[dTrp(2-Me)]AW[dF]K-NH2) | 65% | 57 % of controls | 35% | 28% | 8% | – | – | – | – | – | – | – | – | – |
| Haic-(D) -(Me)Trp-(D)-Lys-Trp-(D)-Phe-Lys-NH2 ([Haic′]W[dK]W[dF]K-NH2; not fully specified (residue 2)) [EP80317] | 73% | 27 % of controls | 28% | 51% | 36% | 39% | 31% | 30% | 37% | did not modulate macrophage accumulation | devoid of GH-secreting activity in vivo | 31.3% | 39.2% | 57% |
